According to ChEMBL document CHEMBL3885861, “Open TG-GATES”:

Species: Rattus norvegicus
Assay: Open TG-GATES - Regimen: Single
Assay type: toxicity, organism-based, Sprague-Dawley
Set-up: regimen Single, gender Male, age 6 weeks
Conditions: in vivo, iv, 40 mg/kg, route intravenous injection, dose level Middle; for APTT / Bas / Eos / Fbg / Hb / Ht / Lym / MCH / MCHC / MCV / Mono / Neu / PT / Plat / RBC / Ret / WBC: tissue Blood; for KIDNEY_L / KIDNEY_R / KIDNEY_TOTAL: tissue Kidney; for LIVER: tissue Liver; for A/G / ALP / ALT / AST / BUN / CRE / Ca / Cl / DBIL / GLC / IP / K / LDH / Na / PL / RALB / TBIL / TC / TG / TP / gamma-GTP: tissue Plasma

Compound: CN(C)c1ncnc2c1ncn2[C@@H]1O[C@H](CO)[C@@H](N)[C@H]1O [PUROMYCIN AMINONUCLEOSIDE]
- TERMINAL_BW (3 h): 219 g
- APTT (3 h): 21.1 s
- Bas (3 h): 0%
- Eos (3 h): 0.4%
- Fbg (3 h): 283.6 mg/dL
- Hb (3 h): 12.7 g/dL
- Ht (3 h): 38%
- Lym (3 h): 55.6%
- MCH (3 h): 21.2 pg
- MCHC (3 h): 33.6%
- MCV (3 h): 63.3 fL
- Mono (3 h): 4.2%
- Neu (3 h): 38%
- PT (3 h): 16.2 s
- Plat (3 h): 115.8 x10_4/uL
- RBC (3 h): 600.8 x10_4/ul
- Ret (3 h): 6.9%
- WBC (3 h): 148.2 x10_2/uL
- KIDNEY_L (3 h): 0.9 g
- KIDNEY_R (3 h): 1 g
- KIDNEY_TOTAL (3 h): 1.9 g
- LIVER (3 h): 9.9 g
- A/G (3 h): 1.2
- ALP (3 h): 1624.6 IU/L
- ALT (3 h): 39.2 IU/L
- AST (3 h): 74 IU/L
- BUN (3 h): 14.2 mg/dL
- CRE (3 h): 0.2 mg/dL
- Ca (3 h): 11.2 mg/dL
- Cl (3 h): 105 meq/L
- DBIL (3 h): 0.002 mg/dL
- GLC (3 h): 177 mg/dL
- IP (3 h): 8 mg/dL
- K (3 h): 4.3 meq/L
- LDH (3 h): 163.4 IU/L
- Na (3 h): 140.6 meq/L
- PL (3 h): 149 mg/dL
- RALB (3 h): 2.9 g/dL
- TBIL (3 h): 0.014 mg/dL
- TC (3 h): 76.2 mg/dL
- TG (3 h): 127.8 mg/dL
- TP (3 h): 5.3 g/dL
- gamma-GTP (3 h): 1 IU/L
- TERMINAL_BW (6 h): 216.4 g
- APTT (6 h): 22.5 s
- Bas (6 h): 0%
- Eos (6 h): 0.6%
- Fbg (6 h): 317.6 mg/dL
- Hb (6 h): 13 g/dL
- Ht (6 h): 39%
- Lym (6 h): 57.2%
- MCH (6 h): 21 pg
- MCHC (6 h): 33.5%
- MCV (6 h): 62.8 fL
- Mono (6 h): 3.4%
- Neu (6 h): 37.8%
- PT (6 h): 15.6 s
- Plat (6 h): 134.5 x10_4/uL
- RBC (6 h): 620.8 x10_4/ul
- Ret (6 h): 6.9%
- WBC (6 h): 125.7 x10_2/uL
- KIDNEY_L (6 h): 1 g
- KIDNEY_R (6 h): 1 g
- KIDNEY_TOTAL (6 h): 1.9 g
- LIVER (6 h): 9.6 g
- A/G (6 h): 1.3
- ALP (6 h): 1345.2 IU/L
- ALT (6 h): 38.2 IU/L
- AST (6 h): 68.6 IU/L
- BUN (6 h): 12.8 mg/dL
- CRE (6 h): 0.1 mg/dL
- Ca (6 h): 11.2 mg/dL
- Cl (6 h): 104.2 meq/L
- DBIL (6 h): 0 mg/dL
- GLC (6 h): 175.2 mg/dL
- IP (6 h): 9.6 mg/dL
- K (6 h): 4.3 meq/L
- LDH (6 h): 166.6 IU/L
- Na (6 h): 139.2 meq/L
- PL (6 h): 149.2 mg/dL
- RALB (6 h): 3 g/dL
- TBIL (6 h): 0.024 mg/dL
- TC (6 h): 78.4 mg/dL
- TG (6 h): 81.6 mg/dL
- TP (6 h): 5.4 g/dL
- gamma-GTP (6 h): 1.2 IU/L
- TERMINAL_BW (9 h): 210.8 g
- APTT (9 h): 21.5 s
- Bas (9 h): 0%
- Eos (9 h): 1%
- Fbg (9 h): 315.4 mg/dL
- Hb (9 h): 13 g/dL
- Ht (9 h): 38.9%
- Lym (9 h): 62%
- MCH (9 h): 20.6 pg
- MCHC (9 h): 33.4%
- MCV (9 h): 61.7 fL
- Mono (9 h): 2.2%
- Neu (9 h): 34.6%
- PT (9 h): 15.9 s
- Plat (9 h): 132.8 x10_4/uL
- RBC (9 h): 631.6 x10_4/ul
- Ret (9 h): 7.2%
- WBC (9 h): 96.5 x10_2/uL
- KIDNEY_L (9 h): 0.9 g
- KIDNEY_R (9 h): 0.9 g
- KIDNEY_TOTAL (9 h): 1.9 g
- LIVER (9 h): 8.7 g
- A/G (9 h): 1.3
- ALP (9 h): 1104.4 IU/L
- ALT (9 h): 35.8 IU/L
- AST (9 h): 67 IU/L
- BUN (9 h): 12.6 mg/dL
- CRE (9 h): 0.1 mg/dL
- Ca (9 h): 11.1 mg/dL
- Cl (9 h): 104.2 meq/L
- DBIL (9 h): 0.002 mg/dL
- GLC (9 h): 176.6 mg/dL
- IP (9 h): 10.3 mg/dL
- K (9 h): 4.6 meq/L
- LDH (9 h): 146 IU/L
- Na (9 h): 139.6 meq/L
- PL (9 h): 145.4 mg/dL
- RALB (9 h): 3.1 g/dL
- TBIL (9 h): 0.024 mg/dL
- TC (9 h): 76.4 mg/dL
- TG (9 h): 103.8 mg/dL
- TP (9 h): 5.5 g/dL
- gamma-GTP (9 h): 1.6 IU/L
- TERMINAL_BW (24 h): 217.2 g
- APTT (24 h): 20.8 s
- Bas (24 h): 0%
- Eos (24 h): 0.8%
- Fbg (24 h): 315.4 mg/dL
- Hb (24 h): 13 g/dL
- Ht (24 h): 37.9%
- Lym (24 h): 85%
- MCH (24 h): 21.3 pg
- MCHC (24 h): 34.3%
- MCV (24 h): 62 fL
- Mono (24 h): 3%
- Neu (24 h): 10.2%
- PT (24 h): 15.9 s
- Plat (24 h): 116 x10_4/uL
- RBC (24 h): 613.4 x10_4/ul
- Ret (24 h): 6%
- WBC (24 h): 71.4 x10_2/uL
- KIDNEY_L (24 h): 1 g
- KIDNEY_R (24 h): 1 g
- KIDNEY_TOTAL (24 h): 2 g
- LIVER (24 h): 9.9 g
- A/G (24 h): 1.3
- ALP (24 h): 1315 IU/L
- ALT (24 h): 46 IU/L
- AST (24 h): 73 IU/L
- BUN (24 h): 19.6 mg/dL
- CRE (24 h): 0.2 mg/dL
- Ca (24 h): 11.4 mg/dL
- Cl (24 h): 103.2 meq/L
- DBIL (24 h): 0.002 mg/dL
- GLC (24 h): 179.2 mg/dL
- IP (24 h): 10 mg/dL
- K (24 h): 4.5 meq/L
- LDH (24 h): 186.2 IU/L
- Na (24 h): 140.6 meq/L
- PL (24 h): 142 mg/dL
- RALB (24 h): 3.1 g/dL
- TBIL (24 h): 0.016 mg/dL
- TC (24 h): 75 mg/dL
- TG (24 h): 89.4 mg/dL
- TP (24 h): 5.6 g/dL
- gamma-GTP (24 h): 1.6 IU/L
